{
  "source": "paper PMC5218480",
  "about": "(PLoS ONE, 2017)",
  "test_system": "MV-4-11 cells",
  "assay": "Gene expression microarray analysis (Affymetrix PrimeView) and GSEA",
  "assay_type": "cell-based, human",
  "design": "RFU PODN (11730768_x_at) / Fold change /veh PODN (11730768_x_at) / RFU LINC00158 (11744669_a_at) / Fold change /veh LINC00158 (11744669_a_at) / RFU DUSP10 (11751237_a_at) / Fold change /veh DUSP10 (11751237_a_at) / RFU ID3 (11757404_x_at) / Fold change /veh ID3 (11757404_x_at) / RFU PLEKHG5 (11737974_s_at) / Fold change /veh PLEKHG5 (11737974_s_at) / RFU LRRC4B (11730491_at) / Fold change /veh LRRC4B (11730491_at) / RFU GIMAP4 (11747438_a_at) / Fold change /veh GIMAP4 (11747438_a_at) / RFU KRT8 (11758183_x_at) / Fold change /veh KRT8 (11758183_x_at) / RFU CNN1 (11734310_a_at) / Fold change /veh CNN1 (11734310_a_at) / RFU VPS37D (11726825_at) / Fold change /veh VPS37D (11726825_at) / RFU C10orf10 (11716522_x_at) / Fold change /veh C10orf10 (11716522_x_at) / RFU KIR2DL2 /// KIR2DL4 /// KIR2DL5A /// KIR2DL5B /// KIR2DS1 /// KIR2DS2 /// KIR2DS3 /// KIR2DS4 /// KIR3DL3 /// KIR3DL3 /// KIR3DS1 (11738374_at) / Fold change /veh KIR2DL2 /// KIR2DL4 /// KIR2DL5A /// KIR2DL5B /// KIR2DS1 /// KIR2DS2 /// KIR2DS3 /// KIR2DS4 /// KIR3DL3 /// KIR3DL3 /// KIR3DS1 (11738374_at) / RFU C1QL1 (11718748_at) / Fold change /veh C1QL1 (11718748_at) / RFU TMPRSS4 (11747572_a_at) / Fold change /veh TMPRSS4 (11747572_a_at) / RFU HAMP (11756126_x_at) / Fold change /veh HAMP (11756126_x_at) / RFU RNFT2 (11725882_a_at) / Fold change /veh RNFT2 (11725882_a_at) / RFU NR4A2 (11747474_a_at) / Fold change /veh NR4A2 (11747474_a_at) / RFU ABCC12 (11746883_a_at) / Fold change /veh ABCC12 (11746883_a_at) / RFU TMEM136 (11760407_x_at) / Fold change /veh TMEM136 (11760407_x_at) / RFU CLDN22 /// WWC2 (11732394_at) / Fold change /veh CLDN22 /// WWC2 (11732394_at) / RFU HLA-DPB1 (11760878_x_at) / Fold change /veh HLA-DPB1 (11760878_x_at) / RFU SPINT1 (11716480_a_at) / Fold change /veh SPINT1 (11716480_a_at) / RFU GAP43 (11754022_s_at) / Fold change /veh GAP43 (11754022_s_at) / RFU A4GNT (11735810_at) / Fold change /veh A4GNT (11735810_at) / RFU PRB3 (11715151_x_at) / Fold change /veh PRB3 (11715151_x_at) / RFU TUBB4B (11761932_at) / Fold change /veh TUBB4B (11761932_at) / RFU CAPN14 (11732068_a_at) / Fold change /veh CAPN14 (11732068_a_at) / RFU TMCC2 (11721928_a_at) / Fold change /veh TMCC2 (11721928_a_at) / RFU IRGQ (11745062_a_at) / Fold change /veh IRGQ (11745062_a_at) / RFU FAM174B (11720279_a_at) / Fold change /veh FAM174B (11720279_a_at) / RFU TMPRSS4 (11748680_a_at) / Fold change /veh TMPRSS4 (11748680_a_at) / RFU FAM212B (11763350_a_at) / Fold change /veh FAM212B (11763350_a_at) / RFU PLEKHG5 (11743358_a_at) / Fold change /veh PLEKHG5 (11743358_a_at) / RFU ZSCAN30 (11745921_a_at) / Fold change /veh ZSCAN30 (11745921_a_at) / RFU CMKLR1 (11741424_a_at) / Fold change /veh CMKLR1 (11741424_a_at) / RFU LOC101060620 /// MAPK8IP1 (11723275_at) / Fold change /veh LOC101060620 /// MAPK8IP1 (11723275_at) / RFU SPTSSB (11747773_x_at) / Fold change /veh SPTSSB (11747773_x_at) / RFU PRSS12 (11739890_at) / Fold change /veh PRSS12 (11739890_at) / RFU BIN1 (11741810_x_at) / Fold change /veh BIN1 (11741810_x_at) / RFU WNT11 (11732464_a_at) / Fold change /veh WNT11 (11732464_a_at) / RFU C10orf10 (11716521_a_at) / Fold change /veh C10orf10 (11716521_a_at) / RFU C5orf56 (11738089_at) / Fold change /veh C5orf56 (11738089_at) / RFU CYB561 (11721691_x_at) / Fold change /veh CYB561 (11721691_x_at) / RFU ANKRD19P (11752326_a_at) / Fold change /veh ANKRD19P (11752326_a_at) / RFU OR2T12 /// OR2T33 /// OR2T8 (11738714_s_at) / Fold change /veh OR2T12 /// OR2T33 /// OR2T8 (11738714_s_at) / RFU VCAN (11748164_a_at) / Fold change /veh VCAN (11748164_a_at) / RFU JSRP1 (11732532_at) / Fold change /veh JSRP1 (11732532_at) / RFU KRTAP10-11 (11738290_x_at) / Fold change /veh KRTAP10-11 (11738290_x_at) / RFU MYO3A (11730013_a_at) / Fold change /veh MYO3A (11730013_a_at) / RFU EBF3 (11725865_a_at) / Fold change /veh EBF3 (11725865_a_at) / RFU CAMK2N1 (11719241_x_at) / Fold change /veh CAMK2N1 (11719241_x_at) / RFU C5orf56 (11738088_a_at) / Fold change /veh C5orf56 (11738088_a_at) / RFU OLFML3 (11715873_a_at) / Fold change /veh OLFML3 (11715873_a_at) / RFU LOC100653217 /// NTM (11731650_a_at) / Fold change /veh LOC100653217 /// NTM (11731650_a_at) / RFU MAPK11 (11762145_a_at) / Fold change /veh MAPK11 (11762145_a_at) / RFU FIZ1 (11724087_x_at) / Fold change /veh FIZ1 (11724087_x_at) / RFU OASL (11726364_x_at) / Fold change /veh OASL (11726364_x_at) / RFU SOX15 (11748057_x_at) / Fold change /veh SOX15 (11748057_x_at) / RFU CD79A (11719716_a_at) / Fold change /veh CD79A (11719716_a_at) / RFU HIST1H1D (11736915_at) / Fold change /veh HIST1H1D (11736915_at) / RFU CASKIN2 (11723855_a_at) / Fold change /veh CASKIN2 (11723855_a_at) / RFU LOC730098 (11760151_x_at) / Fold change /veh LOC730098 (11760151_x_at) / RFU OR4N2 (11742367_at) / Fold change /veh OR4N2 (11742367_at) / RFU PRRT2 (11749266_a_at) / Fold change /veh PRRT2 (11749266_a_at) / RFU SNX32 (11753110_a_at) / Fold change /veh SNX32 (11753110_a_at) / RFU CDHR5 (11726645_a_at) / Fold change /veh CDHR5 (11726645_a_at) / RFU RCAN1 (11760418_a_at) / Fold change /veh RCAN1 (11760418_a_at) / RFU FAM167A (11723789_a_at) / Fold change /veh FAM167A (11723789_a_at) / RFU FAM26E (11764081_at) / Fold change /veh FAM26E (11764081_at) / RFU ISYNA1 (11749810_s_at) / Fold change /veh ISYNA1 (11749810_s_at) / RFU ACY1 (11761880_at) / Fold change /veh ACY1 (11761880_at) / RFU 11764098_at / Fold change /veh 11764098_at / RFU SAMD14 (11745864_x_at) / Fold change /veh SAMD14 (11745864_x_at) / RFU NPB (11741838_a_at) / Fold change /veh NPB (11741838_a_at) / RFU TMPRSS6 (11731388_a_at) / Fold change /veh TMPRSS6 (11731388_a_at) / RFU KRTAP10-2 (11738614_at) / Fold change /veh KRTAP10-2 (11738614_at) / RFU ARHGAP8 /// PRR5-ARHGAP8 (11727945_x_at) / Fold change /veh ARHGAP8 /// PRR5-ARHGAP8 (11727945_x_at) / RFU KRTAP5-7 /// NADSYN1 (11734609_at) / Fold change /veh KRTAP5-7 /// NADSYN1 (11734609_at) / RFU RASL12 (11751679_a_at) / Fold change /veh RASL12 (11751679_a_at) / RFU CDKN2B (11736163_a_at) / Fold change /veh CDKN2B (11736163_a_at) / RFU PRF1 (11729649_at) / Fold change /veh PRF1 (11729649_at) / RFU, ZNF638 /// ZNF638-IT1 / Fold change vs veh, ZNF638 /// ZNF638-IT1 / RFU, PANK3 / Fold change vs veh, PANK3 / RFU, SH3YL1 / Fold change vs veh, SH3YL1 / RFU, ZEB2 / Fold change vs veh, ZEB2 / RFU, NRIP1 / Fold change vs veh, NRIP1 / RFU, PTTG1IP / Fold change vs veh, PTTG1IP / RFU, CAPN2 / Fold change vs veh, CAPN2 / RFU, MED14 / Fold change vs veh, MED14 / RFU, SNORA58 / Fold change vs veh, SNORA58 / RFU, C1orf63 / Fold change vs veh, C1orf63 / RFU, LRRFIP1 / Fold change vs veh, LRRFIP1 / RFU, NDUFAF7 / Fold change vs veh, NDUFAF7 / RFU, SLC12A2 / Fold change vs veh, SLC12A2 / RFU, IBTK / Fold change vs veh, IBTK / RFU, ESF1 / Fold change vs veh, ESF1 / Fold change vs veh, TMEM50B / RFU, TAOK1 / Fold change vs veh, TAOK1 / RFU, ACBD3 / Fold change vs veh, ACBD3 / RFU, TMA16 / Fold change vs veh, TMA16 / RFU, RWDD3 / Fold change vs veh, RWDD3 / RFU, BCAT1 / Fold change vs veh, BCAT1 / RFU, EDEM3 / Fold change vs veh, EDEM3 / RFU, TMEM33 / Fold change vs veh, TMEM33 / RFU, WDR75 / Fold change vs veh, WDR75 / RFU, AHCTF1 / Fold change vs veh, AHCTF1 / RFU, TFRC / Fold change vs veh, TFRC / RFU, ZDHHC17 / Fold change vs veh, ZDHHC17 / RFU, NOM1 / Fold change vs veh, NOM1 / RFU, ARL8B / Fold change vs veh, ARL8B / RFU, ZBTB11 / Fold change vs veh, ZBTB11 / RFU, TAMM41 / Fold change vs veh, TAMM41 / RFU, KIAA1704 /// LOC100996395 / Fold change vs veh, KIAA1704 /// LOC100996395 / RFU, ING1 / Fold change vs veh, ING1 / RFU, TRMT61B / Fold change vs veh, TRMT61B / RFU, FUBP3 / Fold change vs veh, FUBP3 / RFU, TP53 / Fold change vs veh, TP53 / RFU, TNKS2 / Fold change vs veh, TNKS2 / RFU, ZFP14 / Fold change vs veh, ZFP14 / RFU, ACTR2 / Fold change vs veh, ACTR2 / RFU, PPP3R1 / Fold change vs veh, PPP3R1 / RFU, PIK3R1 / Fold change vs veh, PIK3R1 / RFU, HNRNPA1 / Fold change vs veh, HNRNPA1 / RFU, RNF170 / Fold change vs veh, RNF170 / RFU, ZNF28 / Fold change vs veh, ZNF28 / RFU, RNGTT / Fold change vs veh, RNGTT / RFU, OGT / Fold change vs veh, OGT / RFU, BRD1 / Fold change vs veh, BRD1 / RFU, MARS / Fold change vs veh, MARS / RFU, ZNF655 / Fold change vs veh, ZNF655 / RFU, FAHD1 / Fold change vs veh, FAHD1 / RFU, BDP1 / Fold change vs veh, BDP1 / RFU, LRRCC1 / Fold change vs veh, LRRCC1 / RFU, ARID1A / Fold change vs veh, ARID1A / RFU, ZNF146 / Fold change vs veh, ZNF146 / RFU, ZNF330 / Fold change vs veh, ZNF330 / RFU, GPN3 / Fold change vs veh, GPN3 / RFU, C9orf123 / Fold change vs veh, C9orf123 / RFU, N4BP2L2 / Fold change vs veh, N4BP2L2 / RFU, ARFIP1 / Fold change vs veh, ARFIP1 / RFU, FAM179B / Fold change vs veh, FAM179B / RFU, BCL10 / Fold change vs veh, BCL10 / RFU, UHRF1BP1L / Fold change vs veh, UHRF1BP1L / RFU, BET1 / Fold change vs veh, BET1 / RFU, CNOT2 / Fold change vs veh, CNOT2 / RFU, ZNF268 / Fold change vs veh, ZNF268 / Fold change vs veh, ZNF507 / RFU, DGCR2 / Fold change vs veh, DGCR2 / RFU, WDSUB1 / Fold change vs veh, WDSUB1 / Fold change vs veh, HSP90B1 /// MIR3652 / RFU, ADSS / Fold change vs veh, ADSS / RFU, GK / Fold change vs veh, GK / RFU, ZNF148 / Fold change vs veh, ZNF148 / RFU, TAF9 / Fold change vs veh, TAF9 / RFU, SLC1A5 / Fold change vs veh, SLC1A5 / RFU, SLMO2 / Fold change vs veh, SLMO2 / RFU, ABCC4 / Fold change vs veh, ABCC4 / RFU, LOC101060439 /// RAP1B / Fold change vs veh, LOC101060439 /// RAP1B / RFU, RFX7 / Fold change vs veh, RFX7 / RFU, GTPBP10 / Fold change vs veh, GTPBP10 / RFU, CNEP1R1 / Fold change vs veh, CNEP1R1 / RFU, BIVM-ERCC5 /// ERCC5 / Fold change vs veh, BIVM-ERCC5 /// ERCC5 / RFU, ILF3 / Fold change vs veh, ILF3 / RFU 11762660_at / Fold change /veh 11762660_at / RFU VCAN (11757783_s_at) / Fold change /veh VCAN (11757783_s_at) / RFU DDX43 (11728927_at) / Fold change /veh DDX43 (11728927_at) / RFU KRT8 (11758188_x_at) / Fold change /veh KRT8 (11758188_x_at) / RFU NKD1 (11759106_at) / Fold change /veh NKD1 (11759106_at) / RFU SRD5A1 (11742802_a_at) / Fold change /veh SRD5A1 (11742802_a_at) / RFU TPSAB1 /// TPSB2 (11721975_s_at) / Fold change /veh TPSAB1 /// TPSB2 (11721975_s_at) / RFU GSTM3 (11746129_a_at) / Fold change /veh GSTM3 (11746129_a_at) / RFU IL23R (11737362_x_at) / Fold change /veh IL23R (11737362_x_at) / RFU TMEM51 (11727254_a_at) / Fold change /veh TMEM51 (11727254_a_at) / RFU PIWIL2 (11732686_x_at) / Fold change /veh PIWIL2 (11732686_x_at) / RFU ORM1 (11744905_x_at) / Fold change /veh ORM1 (11744905_x_at) / RFU CCDC152 (11743942_at) / Fold change /veh CCDC152 (11743942_at) / RFU ECM1 (11717891_a_at) / Fold change /veh ECM1 (11717891_a_at) / RFU IL23R (11748794_a_at) / Fold change /veh IL23R (11748794_a_at) / RFU TNFAIP8L3 (11732012_x_at) / Fold change /veh TNFAIP8L3 (11732012_x_at) / RFU MBOAT4 (11741988_at) / Fold change /veh MBOAT4 (11741988_at) / RFU 11764193_at / Fold change /veh 11764193_at / RFU TMEM53 (11763286_at) / Fold change /veh TMEM53 (11763286_at) / RFU MAGEB2 (11727129_at) / Fold change /veh MAGEB2 (11727129_at) / RFU TMEM200A (11744735_a_at) / Fold change /veh TMEM200A (11744735_a_at) / RFU CCDC152 (11751479_a_at) / Fold change /veh CCDC152 (11751479_a_at) / RFU FAM211A (11726209_a_at) / Fold change /veh FAM211A (11726209_a_at) / RFU RGS16 (11746705_a_at) / Fold change /veh RGS16 (11746705_a_at) / RFU VCAN (11755009_s_at) / Fold change /veh VCAN (11755009_s_at) / RFU RHOB (11743442_s_at) / Fold change /veh RHOB (11743442_s_at) / RFU RGS16 (11720943_a_at) / Fold change /veh RGS16 (11720943_a_at) / RFU RGS16 (11720944_at) / Fold change /veh RGS16 (11720944_at) / RFU, VPS4B / Fold change vs veh, VPS4B / RFU, CREB1 / Fold change vs veh, CREB1 / RFU, DNAJC13 / Fold change vs veh, DNAJC13 / RFU, GNAQ / Fold change vs veh, GNAQ / RFU, CDK5R1 / Fold change vs veh, CDK5R1 / RFU, ZRANB3 / Fold change vs veh, ZRANB3 / RFU, CUL4A / Fold change vs veh, CUL4A / RFU, CCNY / Fold change vs veh, CCNY / RFU, UFL1 / Fold change vs veh, UFL1 / RFU, COG3 / Fold change vs veh, COG3 / RFU, DIAPH2 / Fold change vs veh, DIAPH2 / RFU, SKA2 / Fold change vs veh, SKA2 / RFU, AFF3 / Fold change vs veh, AFF3 / RFU, LMF1 / Fold change vs veh, LMF1 / RFU, IPO11 / Fold change vs veh, IPO11 / RFU, DFFB / Fold change vs veh, DFFB / RFU, FOXP1 / Fold change vs veh, FOXP1 / RFU, CARD8 / Fold change vs veh, CARD8 / RFU, STRN3 / Fold change vs veh, STRN3 / RFU, ADK / Fold change vs veh, ADK / RFU, RASSF2 / Fold change vs veh, RASSF2 / RFU, WIPF1 / Fold change vs veh, WIPF1 / RFU, LARP1B / Fold change vs veh, LARP1B / RFU, RASA1 / Fold change vs veh, RASA1 / RFU, RB1 / Fold change vs veh, RB1 / RFU, PPFIA1 / Fold change vs veh, PPFIA1 / RFU, MAT2A / Fold change vs veh, MAT2A / RFU, CCT5 / Fold change vs veh, CCT5 / RFU, WDR92 / Fold change vs veh, WDR92 / RFU, CUX1 / Fold change vs veh, CUX1 / RFU, TTC7A / Fold change vs veh, TTC7A / RFU, TMEM135 / Fold change vs veh, TMEM135 / RFU, DEPTOR / Fold change vs veh, DEPTOR / RFU, CPM / Fold change vs veh, CPM / RFU, DNAJB6 / Fold change vs veh, DNAJB6 / RFU, CACNA2D3 / Fold change vs veh, CACNA2D3 / RFU, DTX4 / Fold change vs veh, DTX4 / RFU, TFCP2 / Fold change vs veh, TFCP2 / RFU, GMCL1 /// GMCL1P1 / Fold change vs veh, GMCL1 /// GMCL1P1 / RFU, AEBP2 / Fold change vs veh, AEBP2 / RFU, SNHG1 /// SNORD22 /// SNORD25 /// SNORD26 /// SNORD27 /// SNORD28 /// SNORD29 /// SNORD31 / Fold change vs veh, SNHG1 /// SNORD22 /// SNORD25 /// SNORD26 /// SNORD27 /// SNORD28 /// SNORD29 /// SNORD31 / Fold change (Aza/veh), C12orf56 (ProbeSet 11735607_a_at) / Fold change (ACY-1035/veh), C12orf56 (ProbeSet 11735607_a_at) / Fold change (Aza/veh), FGFR1OP (ProbeSet 11751329_s_at) / Fold change (ACY-1035/veh), FGFR1OP (ProbeSet 11751329_s_at) / Fold change (Aza/veh), VPS36 (ProbeSet 11739960_a_at) / Fold change (ACY-1035/veh), VPS36 (ProbeSet 11739960_a_at) / RFU SYPL1 (11715823_x_at) / Fold change /veh SYPL1 (11715823_x_at) / RFU IGFBP7 (11715501_s_at) / Fold change /veh IGFBP7 (11715501_s_at) / RFU REEP3 (11722064_at) / Fold change /veh REEP3 (11722064_at) / RFU IGLL1 (11728026_x_at) / Fold change /veh IGLL1 (11728026_x_at): dose or concentration left out as unconfirmed",
  "details": "ProbeSet 11743362_s_at; LIST B",
  "data": [
    {"smiles": "Nc1ccc(-c2cccs2)cc1NC(=O)c1ccc2c(c1)cc(C1CC1)n2CCN1CCOCC1", "note": "[ACY-1035]", "values": [
      {"measurement": "Fold change vs veh, ADSS", "value": 0.95}
    ]}
  ]
}
